Values joined by “and” are separate entries in the source; they are usually repeats but may differ in a detail not shown here. Identical values can stand only once. “Also recorded” adds a separate entry of the source. Like-named read-outs stand apart in the source and are kept apart here.
Experiments:
Y. pestis MEP synthase [1] = molecular target: T1, Y. pestis MEP synthase (Yersinia pestis, UniProt Q8ZH62); conditions: for IC50: read-out: IC50 (dose-response, Figure 9)
[2] = molecular target: Synechocytis sp PCC6803 MEP synthase; conditions: cited from earlier work
Y. pestis MEP synthase [3] = molecular target: T1, Y. pestis MEP synthase; assay: biochemical; conditions: for inhibition at 100 µM: read-out: inhibition of enzymatic activity (rational library screen)
MEP synthase = conditions: cited from earlier work
Y. pestis subsp. A1122 = assay: microbe, parasite or virus in culture; type: cell-based, Yersinia pestis; conditions: for IC50: read-out: IC50 of Y. pestis growth (fractional growth, OD600)
[4] = system: F. tularensis MEP synthase; conditions: cited from earlier work
E.coli MEP synthase = conditions: cited from earlier work
F. tularensis = conditions: read-out: activity of fosmidomycin with F. tularensis (half maximal growth inhibition); cited from earlier work
[5] = Yersinia pestis, SUBSP.A1122, 24 h
[6] = IC50 (enzyme preincubated with inhibitor, Figure 10)

T1 sequence (Q8ZH62 whole entry, looked up): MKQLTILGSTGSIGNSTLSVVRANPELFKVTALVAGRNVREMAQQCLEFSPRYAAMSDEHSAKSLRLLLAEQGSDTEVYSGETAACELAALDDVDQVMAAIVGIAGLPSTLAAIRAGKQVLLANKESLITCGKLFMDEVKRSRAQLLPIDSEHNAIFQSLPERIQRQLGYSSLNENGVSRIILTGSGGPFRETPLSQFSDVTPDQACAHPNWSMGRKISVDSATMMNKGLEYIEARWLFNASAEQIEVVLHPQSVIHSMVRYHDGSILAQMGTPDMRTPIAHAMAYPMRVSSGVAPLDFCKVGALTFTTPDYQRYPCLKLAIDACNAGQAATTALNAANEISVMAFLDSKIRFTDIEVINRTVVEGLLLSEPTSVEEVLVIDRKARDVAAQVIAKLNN

CC(C)=CCOP(=O)(O)OP(=O)(O)O [DMAPP, dimethylallyl pyrophosphate]
inhibition of Y. pestis MEP synthase (feedback inhibition test) (Y. pestis MEP synthase [1]): No enzyme inhibition was observed

CC(=O)N(O)CCCP(=O)(O)O [FR900098, reference compound]
Ki ([2]; read-out: Ki FR900098): 2 nM
Ki (Y. pestis MEP synthase [3]): 170 ± 7.1 nM
IC50 (Y. pestis MEP synthase [3]; IC50 FR900098): 231 nM
mode of inhibition relative to DXP (MEP synthase): competitive
mode of inhibition with respect to the binding of NADPH (MEP synthase): uncompetitive
IC50 (Y. pestis subsp. A1122; [5]): 29 µM and 6.4 µg/mL
IC50 (Y. pestis subsp. A1122): 29.3 µM
IC50 ([4]; read-out: IC50 FR900098): 230 nM
mode of inhibition with respect to DXP (Y. pestis MEP synthase [1]): competitive
mode of inhibition with respect to NADPH (Y. pestis MEP synthase [1]): uncompetitive
IC50 (E.coli MEP synthase; read-out: IC50 FR900098): 35 nM

CC(C)=CCC/C(C)=C/COP(=O)(O)OP(=O)(O)O [GPP, geranyl pyrophosphate]
inhibition of Y. pestis MEP synthase (feedback inhibition test) (Y. pestis MEP synthase [1]): No enzyme inhibition was observed

C=C(C)CCO[P@@](=O)(O)OP(=O)(O)O [IPP, isopentenyl pyrophosphate]
inhibition of Y. pestis MEP synthase (feedback inhibition test) (Y. pestis MEP synthase [1]): No enzyme inhibition was observed

CC1(C)S[C@@H]2[C@H](NC(=O)[C@H](N)c3ccccc3)C(=O)N2[C@H]1C(=O)O [ampicillin, reference compound]
IC50 (Y. pestis subsp. A1122; [5]): 10.8 µM and 3.8 µg/mL

CC(=O)N(CCCP(=O)(O)O)OCc1ccc(-c2ccccc2)cc1 [compound 13]
inhibition at 100 µM (Y. pestis MEP synthase [3]): > 75%
IC50 (Y. pestis MEP synthase [1]): 5.11 µM

C[C@@]1(CO)OP(=O)(O)OP(=O)(O)OC[C@H]1O [compound 15]
IC50 (Y. pestis MEP synthase [3]; IC50 (dose-response, Figure 9)): 4110 nM
IC50 (Y. pestis MEP synthase [3]; [6]): 1190 nM
inhibition at 100 µM (Y. pestis MEP synthase [3]): > 75%
growth inhibitory activity towards Y. pestis liquid culture (Y. pestis subsp. A1122): comparable to FR900098; also recorded: relatively poor inhibitory activity
improvement of IC50 on preincubation with inhibitor (Y. pestis MEP synthase [1]): approximately 3 fold

C/C(=C\COP(=O)(O)OP(=O)(O)O)CO [compound 16]
IC50 (Y. pestis MEP synthase [3]; IC50 (dose-response, Figure 9)): 4150 nM
IC50 (Y. pestis MEP synthase [3]; [6]): 335 nM
inhibition at 100 µM (Y. pestis MEP synthase [3]): > 75%
growth inhibitory activity towards Y. pestis liquid culture (Y. pestis subsp. A1122): comparable to FR900098; also recorded: relatively poor inhibitory activity
improvement of IC50 on preincubation with inhibitor (Y. pestis MEP synthase [1]): ~12 fold
mode of inhibition with respect to DXP (Y. pestis MEP synthase [1]): competitive
mode of inhibition with respect to NADPH (Y. pestis MEP synthase [1]): competitive

Cc1ccc(C(=O)N(O)CCCP(=O)(O)O)cc1 [compound 42]
inhibition at 100 µM (Y. pestis MEP synthase [3]): > 75%
IC50 (Y. pestis MEP synthase [1]): 10.8 µM

O=C(c1ccc2ccccc2c1)N(O)CCCP(=O)(O)O [compound 48]
inhibition at 100 µM (Y. pestis MEP synthase [3]): > 75%
IC50 (Y. pestis MEP synthase [1]): 9.53 µM

CCOP(=O)(CCCN(OCc1ccc(C(C)C)cc1)C(C)=O)OCC [compound 51]
growth inhibitory activity towards Y. pestis liquid culture (Y. pestis subsp. A1122): comparable to FR900098; also recorded: relatively poor inhibitory activity

CC(=O)N(CCCP(=O)(OCOC(=O)C(C)(C)C)OCOC(=O)C(C)(C)C)OCc1ccc(C(C)C)cc1 [compound 52]
growth inhibitory activity towards Y. pestis liquid culture (Y. pestis subsp. A1122): comparable to FR900098; also recorded: relatively poor inhibitory activity

O=CN(O)CCCP(=O)(O)O [fosmidomycin]
Ki ([2]; read-out: Ki fos): 4 nM
IC50 (F. tularensis): 12.1 µM
Ki (Y. pestis MEP synthase [3]): 968 nM
IC50 (Y. pestis MEP synthase [3]; IC50 fos): 710 nM
mode of inhibition with respect to the binding of NADPH (MEP synthase): uncompetitive
IC50 ([4]; read-out: IC50 fos): 247 nM
Ki ([4]; read-out: Ki fos): 98.9 ± 4.5 nM
IC50 (E.coli MEP synthase; read-out: IC50 fos): 35 nM
Ki (E.coli MEP synthase; read-out: Ki fos): 21 to 215 nM
